Assay results published in ChEMBL document CHEMBL1138394, “A novel butyrolactone derivative inhibited apoptosis and depressed integrin beta4 expression in vascular endothelial cells” (2007).
Active and inactive are the calls of the source. The calls are words filed in the database; no cut-off is given here.

How the values were obtained:
[1] = Inhibition of serum deprivation-induced integrin beta-4 expression in vascular endothelial cells at 40 ug/ml after 24 hrs relative to control; type: functional, Homo sapiens, Endothelial cell
[2] = Inhibition of FGF2 deprivation-induced integrin beta-4 expression in vascular endothelial cells at 40 ug/ml after 24 hrs relative to control; type: functional, Homo sapiens, Endothelial cell
Endothelial cell [3] = test: Prevention of serum deprivation-induced reduction of vascular endothelial cell viability after 24 hrs by MTT assay; type: functional, cell-based; conditions: Homo sapiens
[4] = Inhibition of FGF2 deprivation-induced ROS level in vascular endothelial cells at 30 ug/ml after 24 hrs relative to control; type: functional, Homo sapiens, Endothelial cell
Endothelial cell [5] = test: Prevention of FGF2 deprivation-induced reduction of vascular endothelial cell viability after 24 hrs by MTT assay; type: functional, cell-based; conditions: Homo sapiens
Endothelial cell [6] = test: Prevention of serum deprivation-induced reduction of vascular endothelial cell viability after 48 hrs by MTT assay; type: functional, cell-based; conditions: Homo sapiens
[7] = Inhibition of FGF2 deprivation-induced vascular endothelial cell apoptosis assessed as apoptotic cell proportion at 40 ug/ml after 24 hrs by TUNEL assay; type: functional, Homo sapiens; parameters: scale not given: the % may be the effect or the level left
Endothelial cell [8] = test: Prevention of FGF2 deprivation-induced reduction of vascular endothelial cell viability after 48 hrs by MTT assay; type: functional, cell-based; conditions: Homo sapiens
Endothelial cell [9] = test: Inhibition of DNA fragmentation in vascular endothelial cells at 40 ug/ml after 24 hrs; type: functional, cell-based; conditions: Homo sapiens
[10] = Inhibition of serum deprivation-induced vascular endothelial cell apoptosis assessed as apoptotic cell proportion at 40 ug/ml after 24 hrs by TUNEL assay; type: functional, Homo sapiens; parameters: scale not given: the % may be the effect or the level left
[11] = Inhibition of serum deprivation-induced ROS level in vascular endothelial cells at 30 ug/ml after 24 hrs relative to control; type: functional, Homo sapiens, Endothelial cell

With `O=C1OC(COc2ccccc2[N+](=O)[O-])CC1Cc1ccccc1` (stereo unspecified) the Activity [1] was 33.8, the Activity [2] was 33.8 and the Activity (Endothelial cell [3]) was “Dose-dependent effect”. The Activity [4] was 7.95, the Activity (Endothelial cell [5]) was “Dose-dependent effect” and the Activity (Endothelial cell [6]) was “Dose-dependent effect”. For the same compound, the Activity [7] was 9.89%, the Activity (Endothelial cell [8]) was “Dose-dependent effect” and the Activity (Endothelial cell [9]) was “Active”. The Activity [10] was 9.89% and the Activity [11] was 7.95.
